24 molecules from patent US8815875B2 (Merck Sharp & Dohme Corp., priority 2008, dated 2014) can be followed below.

The target in this assay is FABP4 (Homo sapiens, UniProt P15090). The assay is described as follows: TdF (Temperature Dependence Fluorescence) assay, thermal shift, FABP4. The class given is binding. Summed up: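 Binding measured as ΔTm versus protein alone; binding constants derived by nonlinear fitting with ΔHL set to −7 kcal/mol and ΔCpL to zero.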

Structures are written as SMILES.

Sequence of FABP4 (P15090 whole entry, species assumed): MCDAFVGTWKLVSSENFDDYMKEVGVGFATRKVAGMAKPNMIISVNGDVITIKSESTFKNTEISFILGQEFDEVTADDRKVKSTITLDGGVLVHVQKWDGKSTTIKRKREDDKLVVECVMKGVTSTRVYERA

Broadly, the Kd is the equilibrium constant for the complex coming apart. Consider `O=c1cc(Cn2ncc3ccccc32)[nH]c2nc(-c3ccccc3)nn12` [1-12], for which the Kd was over 500 nM.
With `O=C(NCC1(CO)CC1)C1(OCc2cc(=O)n3nc(-c4ccccc4)nc3[nH]2)CCCCC1` [48-54], the “FABP4 TdF Kd” value is given as “B (0.5 ≦ B < 0.001 μM)”.
On the same count and under the same terms, the same measure for `O=C(NCC1(O)CCCCC1)c1c(Cl)cccc1OCc1cc(=O)n2nc(-c3ccccc3)nc2[nH]1` [47-13, 2-chloro-N-((1-hydroxycyclohexyl)methyl)-6-((7-oxo-2-phenyl-4,7-dihydro-[1,2,4]triazolo[1,5-a]pyrimidin-5-yl)methoxy)benzamide]: “B (0.5 ≦ B < 0.001 μM)”.
For the molecule `O=c1c(Cl)c(CN2CCCC2Cc2ccncn2)[nH]c2nc(-c3ccccc3)nn12` (stereo not drawn) [24-6], the Kd was over 500 nM.
Still for that read-out and setting: the same measure for `O=C(NC1(c2cccc(Cl)c2F)CC1)C1(OCc2cc(=O)n3nc(-c4ccccc4)nc3[nH]2)CCCCC1` [48-10]: at most 1 nM.
With `O=c1cc(COc2cccc3c2CCC3)[nH]c2nc(-c3ccccc3)nn12` [1-6], the “FABP4 TdF Kd” value was “B (0.5 ≦ B < 0.001 μM)”.
With `O=c1cc(COc2cccc(Cl)c2)[nH]c2nc(-c3ccccc3)nn12` [1-88], the “FABP4 TdF Kd” value is listed as “B (0.5 ≦ B < 0.001 μM)”.
As for `CN(Cc1cccc(Cl)c1)C(=O)C1(OCc2cc(=O)n3nc(-c4ccccc4)nc3[nH]2)CCCCC1` [48-31], the “FABP4 TdF Kd” value is “B (0.5 ≦ B < 0.001 μM)”.
The same measure, in the same setting: for `O=c1cc(COc2ccccc2OC(F)(F)F)[nH]c2nc(-c3ccccc3)nn12` [1-18] the value was “B (0.5 ≦ B < 0.001 μM)”.
Regarding `CC1(CNC(=O)c2c(Cl)cccc2OCc2cc(=O)n3nc(-c4ccccc4)nc3[nH]2)COC1` [47-28, 2-chloro-N-((3-methyloxetan-3-yl)methyl)-6-((7-oxo-2-phenyl-4,7-dihydro-[1,2,4]triazolo[1,5-a]pyrimidin-5-yl)methoxy)benzamide], the Kd was at most 1 nM.
On to `O=c1cc(CN2CCc3ccc(Cl)cc32)[nH]c2nc(-c3ccccc3)nn12` [1-83], for which the “FABP4 TdF Kd” value is on record as “B (0.5 ≦ B < 0.001 μM)”.
The same measure, in the same setting: the same measure for `O=C(O)c1c(Cl)cccc1OCc1cc(=O)n2nc(-c3ccccc3)nc2[nH]1` [47-1, 2-chloro-6-((7-oxo-2-phenyl-4,7-dihydro-[1,2,4]triazolo[1,5-a]pyrimidin-5-yl)methoxy)benzoic acid]: “B (0.5 ≦ B < 0.001 μM)”.
Consider `Cn1cc(Br)c(NCc2cc(=O)n3nc(-c4ccccc4)nc3[nH]2)n1` [1-146], for which the Kd was over 500 nM.
Consider `O=C(NCC1(CO)CCC1)c1ccccc1OCc1cc(=O)n2nc(-c3ccccc3)nc2[nH]1` [47-58], for which the “FABP4 TdF Kd” value is reported as “B (0.5 ≦ B < 0.001 μM)”.
Regarding `CCc1ccc(OCc2cc(=O)n3nc(CC)nc3[nH]2)cc1` [8-4], the Kd was over 500 nM.
The same measure, in the same setting: for `CN(C)Cc1c(Cl)cccc1OCc1cc(=O)n2nc(-c3ccccc3)nc2[nH]1` [33-1] the value was over 500 nM.
`O=C(NC1(CO)CCC1)c1c(Cl)cccc1OCc1cc(=O)n2nc(-c3ccccc3)nc2[nH]1` [47-35]: the “FABP4 TdF Kd” value is on record as “B (0.5 ≦ B < 0.001 μM)”.
Same read-out and setting: the same measure for `COc1cc(OC)cc(OCc2cc(=O)n3nc(-c4ccccc4)nc3[nH]2)c1` [1-32]: “B (0.5 ≦ B < 0.001 μM)”.
Regarding `O=c1cc(COc2ccccc2C(F)(F)F)[nH]c2nc(-c3ccccc3)nn12` [1-62], the “FABP4 TdF Kd” value is on record as “B (0.5 ≦ B < 0.001 μM)”.
On to `CC(C)(C)c1cc(NC(=O)c2c(Cl)cccc2OCc2cc(=O)n3nc(-c4ccccc4)nc3[nH]2)n(-c2ccc(Cl)cc2)n1` [47-27, N-(3-tert-butyl-1-(4-chlorophenyl)-1H-pyrazol-5-yl)-2-chloro-6-((7-oxo-2-phenyl-4,7-dihydro-[1,2,4]triazolo[1,5-a]pyrimidin-5-yl)methoxy)benzamide], for which the Kd was at most 1 nM.
On the same count and under the same terms, for `CCOc1ccc(NCc2cc(=O)n3nc(-c4ccccc4)nc3[nH]2)cc1` [6-2] the value was over 500 nM.
Consider `Cc1c(Cl)cccc1OCc1cc(=O)n2nc(-c3ccsc3)nc2[nH]1` [25-4], for which the “FABP4 TdF Kd” value is “B (0.5 ≦ B < 0.001 μM)”.
Turning to `O=c1cc(CN2CCn3c(Br)nnc3C2)[nH]c2nc(-c3ccccc3)nn12` [1-109], the Kd was over 500 nM.
Consider `O=c1cc(COc2ccccn2)[nH]c2nc(-c3ccccc3)nn12` [1-47], for which the Kd was over 500 nM.
